Test results as given in patent US6596712B2, “Treatment of carcinomas using squalamine in combination with other anti-cancer agents or modalities” (Genaera Corporation, priority 1996, dated 2003).

Legend:
NHE1, NHE2, NHE3 = details: FIG. 4; cited from earlier work
[1] = tested on: human MX-1 breast cancer line; type: in vivo; details: single 200 mg/kg dose on day 14
Experimental: These documents each are entirely incorporated herein by reference. Squalamine was examined as adjunctive therapy following a single 200 mg/kg dose of cyclophosphamide. The cyclophosphamide was injected on day 14 following implantation of the tumor, at a time when the tumors measured 65-125 μl. […] The animals were then randomized to three treatment arms (each n=27): vehicle dosing only (Intralipid); squalamine given 10 mg/kg/day in Intralipid; and squalamine given 20 mg/kg/day in Intralipid for five days a week. Animals whose tumors exceeded 2 grams at any time during the experiment were euthanized. The experiment was continued for 90 days after initiating squalamine treatment to ensure that only mice experiencing long-term cures were still alive.

[2] = tested on: murine Lewis lung adenocarcinoma; test: Lung metastases of subcutaneous Lewis lung carcinoma; type: in vivo, C57BL/6 mice; details: day 20; squalamine 20 mg/kg/day s.c.; cyclophosphamide 125 mg/kg i.p. days 7, 9, 11; cisplatin 10 mg/kg i.p. day 7
Experimental: The murine Lewis lung adenocarcinoma was implanted subcutaneously in the hind-leg of male C57BL/6 mice and allowed to grow for one week. Groups of mice were then left untreated or treated with either squalamine (20 mg/kg/day, s.c.), cyclophosphamide (125 mg/kg, i.p. on days 7, 9 and 11), cisplatin (10 mg/kg, i.p. on day 7), the combination of squalamine and cyclophosphamide, or the combination of squalamine and cisplatin. On day 20, the animals were sacrificed, and the mean number of lung metastases were determined for each group.

LNCaP cells = test: LNCaP cell growth in vitro ([3H]-thymidine incorporation); type: cell-based, human; details: media containing serum
Experimental: The anti-proliferative effect of squalamine was evaluated in tissue culture by both crystal violet staining and [^3H]-thymidine incorporation, on the LNCaP/C4-2 human prostate cancer progression model. Developed by applicants' laboratory, this lineage-derived cell line recapitulates the progression of human neoplastic prostate disease from an androgen-dependent and minimally metastatic condition (LNCaP cells) to an androgen-independent (defined as being able to proliferate in castrate hosts) and highly aggressive state (C4-2 subline).
In vitro experiments were also conducted with the LNCAP cell line in which cell proliferation as judged by [3H]-thymidine uptake was determined. LNCaP cells were maintained as previously described (cf. J. T. Hsieh et al., Cancer Research 53, 2852-2857 (1993)). Cells were exposed to 20 ng/mL vascular endothelial growth factor (VEGF), 20 μg/mL squalamine or a combination of VEGF and squalamine. […] As a consequence, the mechanism underlying the effectiveness of squalamine treatment of the LNCaP tumor in vivo may under certain conditions also involve direct inhibition of tumor cell growth and/or induction of tumor cell death.

[3] = tested on: 9L gliosarcoma tumors (9L glioma); test: 9L glioma flank study; type: in vivo, Fisher 344 rats; details: Day 25 or 26 after implantation; treatment from Day 5 per Table 4
Experimental: Four groups of rats (twenty total Fisher 344 rats, 200 g) were given s.q. transplants of 1 mm3 9L gliosarcoma tumors (9L glioma) on Day 0. The tumors were implanted in the rat flanks to avoid complications relating to adequate brain levels of squalamine. Randomization and treatment began on Day 5 according to the following scheme:
On Day 25 or 26 after tumor implantation, the tumor size was measured directly. The tumor size (i.e., its volume “V”) was estimated based on volumetric calculations determined from the measured length (“L”), width (“W”), and height (“H”) of the tumor (Vtumor spheroid˜0.5 ×L×W×H). The tumor volumes shown in Table 5 represent the mean tumor volumes for each treatment group for those animals that survived to the end of the experiment.

parental 2008 cell line = test: Human ovarian tumor 2008 xenograft with cisplatin; type: in vivo, female Swiss nude mice; details: cisplatin single dose 4 mg/kg, squalamine 2 mg/kg, days 1-10
Experimental: Human ovarian tumor cells were injected subcutaneously (5×10^7 cells per animal) in the mid-back region of female Swiss nude mice. The human ovarian tumors were either the parental 2008 cell line (cf. R. J. Pietras et al., Oncogene 9, 1829-1838 (1994)) or a transfected variant overexpressing the Her-2/neu receptor. The overexpression of the Her-2/neu receptor is considered to make the resulting xenograft tumors more angiogenic and less responsive to chemotherapy. After one week, animals were randomized to groups receiving no treatment (controls), a single dose of cisplatin (4 mg/kg), daily treatment with squalamine (2 mg/kg, days 1-10) or cisplatin plus squalamine. The growth of tumors was then scored on day 28 following initiation of chemotherapy. The results were very similar with the parental 2008 tumor and the transfected variant overexpressing the Her-2/neu receptor. […] In this xenograft model, the [day 28 mean treated tumor weight increase divided by the day 28 mean control tumor weight increase (T/C)] x 100% was subtracted from 100% to give the tumor growth inhibition (TGI) value for each group.

Calu-6 = Calu-6 lung tumor xenograft with carboplatin; type: in vivo, nude BALBc mice
Experimental: (§1) About 5×10^6 cells from each of two human lung tumor lines, H460 (a rapidly proliferating large cell carcinoma cell line, ATCC HTB-177) and Calu-6 (an anaplastic carcinoma, ATCC HTB-56), were inoculated subcutaneously in the right foreleg of nude BALBc mice. Once tumors were visible (3-5 days) with a mean volume of approximately 50-80 mm^3, mice were treated intraperitoneally with 60 mg/kg carboplatin (single dose) or 20 mg/kg/squalamine (once daily for 5 days) or a combination of carboplatin and squalamine. There were 8 mice per group. Tumor growth inhibition was scored by quantifying the size of tumors once control tumors reached a size of 1.0 gram and determining the ratio of mean treated tumor size to mean control tumor size (T/C). Tumor growth inhibition was then scored as 100% x [1-(T/C)]. A separate antitumor activity variable, tumor growth delay, was scored for the tumors by determining the length of time it required for the mean tumor size in a treatment group to reach a size of 500 mm^3 (B. A. Teicher et al., Anticancer Research 18, 2567-2574 (1998)). The tumor growth inhibition seen with carboplatin plus squalamine was greater than that seen with carboplatin or squalamine alone. The relative inactivity of squalamine as a single agent by this assay endpoint supports the idea that squalamine is synergistic with carboplatin in the inhibition of these two human lung tumor xenografts. Similarly, it was determined that squalamine enhanced the tumor growth delay caused by carboplatin by an enhancement factor of >2.3 (Table 7).

H460 = H460 lung tumor xenograft with carboplatin; type: in vivo, nude BALBc mice
Experimental: as §1

[4] = carboplatin 60 mg/kg i.p. single dose, squalamine 20 mg/kg once daily for 5 days
[5] = time for mean tumor size to reach 500 mm^3

## N=C(N)NC(=O)c1nc(Cl)c(N)nc1N [amiloride]
NHE1, NHE2, NHE3
  NHE isoform selectivity: specifically act against NHE1 over NHE2 or NHE3

## O=P1(N(CCCl)CCCl)NCCCO1 (centres unmarked) [cyclophosphamide, N,N-Bis-(2-chloroethyl)-N′-(3-hydroxypropyl)phosphordiamidic acid cyclic ester monohydrate, reference compound]
[1]
  tumor regression: partial regression in all animals and complete regression in a small fraction of the animals
[2]
  mean number of lung metastases: reduced the number of metastases

## VEGF
LNCaP cells; 20 ng/mL VEGF and/or 20 μg/mL squalamine, 24 hours
  Percent of Control [3H]-Thymidine Uptake: 84%
LNCaP cells; 20 ng/mL VEGF or 20 μg/mL squalamine
  effect on cell growth alone: minimal effects on cell growth

## O=NN(CCCl)C(=O)NCCCl [BCNU, 1,3-Bis(2-chloroethyl)-1-nitrosourea, reference compound]
[3]
  % Reduction (based on control volume): 86.1%
  Mean Tumor volume: 2,547 mm^3

## N.N.[Cl][Pt][Cl] [Cisplatin, cis-Diamminedichloroplatinum, reference compound]
[2]
  mean number of lung metastases: reduced the number of metastases
Parental 2008 cell line
  Day 28 Mean Tumor Size: 5108 mm^3
Parental 2008 cell line; day 28
  Tumor Growth Inhibition (TGI) Index: 18%

## N.N.O=C([O-])C1(C(=O)[O-])CCC1.[Pt+2] [Carboplatin, carboplatin]
Calu-6; [4]
  Tumor Growth Inhibition (T/C): 23%
Calu-6; [5]
  Tumor Growth Delay: 2.5
H460; [4]
  Tumor Growth Inhibition (T/C): 50%
H460; [5]
  Tumor Growth Delay: 2.9
